Reference: patent US6376710B2, “Amidine compounds and their use as pesticides” (Sumitomo Chemical Co., Ltd., priority 2000, dated 2002)

Columns and labels:
Type in all cases: in vivo
[1] = system: German cockroach (Blattella germanica); assay: Test Example 2: treated filter paper with sucrose bait, German cockroach male adults, mortality; settings: 144 h
[2] = system: house fly (Musca domeestica); assay: Test Example 3: treated filter paper with sucrose bait, house fly female adults, mortality; settings: 24 h
Experimental: On the bottom of a polyethylene cup of 5.5 cm in diameter was placed a filter paper of the same size, to which a water dilution (500 ppm) of each of the formulations obtained from present compounds 1, 2, 3, 4, 5, 6, 7, 8, 9, 10, 11, 12, 13, 14, 15, 16, 17, 18, 19, 20, 21, 25, 26, 27, 28, 29, 32, 33, 34, 35, 36, 37, 38, 39, 40, 41, 42, 43, 44, 45, 47, 51, 52, 53, 54, 55, 60, and 61 according to Formulation Example 1 was added dropwise in an amount of 0.7 ml, and the cup was uniformly charged with about 30 mg of sucrose as a bait. Ten female adults of house fly (Musca domeestica) were set free in each cup, which was then kept covered. After 1 day, their survival was examined to determine the mortality.

[3] = system: common mosquito (Culex pipiens pallens); assay: Test Example 4: treated water, common mosquito final-instar larvae, mortality; settings: 192 h

NC(=Nc1c(Br)cc(C(F)(F)F)cc1Br)C(F)(F)C(F)(F)F [present compound 17, N-(2,6-Dibromo-4-trifluoromethylphenyl)-2,2,3,3,3-pentafluoropropionamidine]
100%: mortality at 500 µg/mL [1] | mortality at 500 µg/mL [2] | mortality at 3.5 ppm [3]

NC(=Nc1c(Cl)cc(OC(F)(F)F)cc1Cl)C(F)(F)C(F)(F)F [present compound 18, N-(2,6-Dichloro-4-trifluoromethoxyphenyl)-2,2,3,3,3-pentafluoropropionamidine]
100%: mortality at 500 µg/mL [1] | mortality at 500 µg/mL [2] | mortality at 3.5 ppm [3]

NC(=Nc1c(F)cc(C(F)(F)F)cc1Cl)C(F)(F)C(F)(F)F [present compound 19, N-(2-Chloro-6-fluoro-4-trifluoromethylphenyl)-2,2,3,3,3-pentafluoropropionamidine]
100%: mortality at 500 µg/mL [1] | mortality at 500 µg/mL [2] | mortality at 3.5 ppm [3]

NC(=Nc1c(Cl)cc(C(F)(F)F)cc1Cl)C(F)(F)C(F)F [present compound 20, N-(2,6-Dichloro-4-trifluoromethylphenyl)-2,2,3,3-tetrafluoropropionamidine]
100%: mortality at 500 µg/mL [1] | mortality at 500 µg/mL [2] | mortality at 3.5 ppm [3]

NC(=Nc1c([N+](=O)[O-])cc(C(F)(F)F)cc1[N+](=O)[O-])C(F)(F)C(F)(F)C(F)(F)F [present compound 21, N-(2,6-Dinitro-4-trifluoromethylphenyl)-2,2,3,3,4,4,4-heptafluorobutyramidine]
100%: mortality at 500 µg/mL [1] | mortality at 500 µg/mL [2] | mortality at 3.5 ppm [3]

NC(=Nc1c([N+](=O)[O-])cc(C(F)(F)F)cc1[N+](=O)[O-])C(F)(F)Br [present compound 25, 2-Bromo-2,2-difluoro-N-(2,6-dinitro-4-trifluoromethylphenyl) acetamidine]
100%: mortality at 500 µg/mL [1] | mortality at 500 µg/mL [2] | mortality at 3.5 ppm [3]

NC(=Nc1c([N+](=O)[O-])cc(C(F)(F)F)cc1[N+](=O)[O-])C(F)(F)C(F)F [present compound 26, N-(2,6-Dinitro-4-trifluoromethylphenyl)-2,2,3,3-tetrafluoropropionamidine]
100%: mortality at 500 µg/mL [1] | mortality at 500 µg/mL [2] | mortality at 3.5 ppm [3]

NC(=Nc1c(Br)cc(C(F)(F)F)cc1[N+](=O)[O-])C(F)(F)C(F)(F)F [present compound 27, N-(2-Bromo-6-nitro-4-trifluoromethylphenyl)-2,2,3,3,3-pentafluoropropionamidine]
100%: mortality at 500 µg/mL [1] | mortality at 500 µg/mL [2] | mortality at 3.5 ppm [3]

NC(=Nc1c([N+](=O)[O-])cc(C(F)(F)F)cc1[N+](=O)[O-])C(F)(F)Cl [present compound 28, 2-Chloro-2,2-difluoro-N-(2,6-dinitro-4-trifluoromethylphenyl)acetamidine]
100%: mortality at 500 µg/mL [1] | mortality at 500 µg/mL [2] | mortality at 3.5 ppm [3]

NC(=Nc1c([N+](=O)[O-])cc(C(F)(F)F)cc1[N+](=O)[O-])C(F)(Br)C(F)(F)F (stereo not drawn) [present compound 29, 2-Bromo-N-(2,6-dinitro-4-trifluoromethylphenyl)-2,3,3,3-tetrafluoropropionamidine]
100%: mortality at 500 µg/mL [1] | mortality at 500 µg/mL [2] | mortality at 3.5 ppm [3]
